Test results published in ChEMBL document CHEMBL1125942, “A potent, simple derivative of an analog of the CC-1065 alkylation subunit” (Bioorg Med Chem Lett, 1991).
Converted amounts (≈) assume the structure as drawn.

Columns and labels:
L1210 [1] = assay: Concentration required for 50% cell growth inhibition against L1210 mouse lymphocytic leukemia; format: functional, cell-based
L1210 [2] = assay: Compound was tested for relative inhibitory concentration required for 50% cell growth inhibition against L1210 mouse lymphocytic leukemia to untreated controls; format: functional

IC50 (L1210 [1])	Relative IC50 (L1210 [2])	SMILES
50 ng/mL (≈ 168 nM)	0.02	CC(C)(C)OC(=O)N1CC2CC23C1=CC(=O)c1ccccc13 (racemic)
100 ng/mL (≈ 255 nM)	0.01	CC(C)(C)OC(=O)NNC(=O)N1CC(CCl)c2c1cc(O)c1ccccc21 (racemic)
2000 ng/mL (≈ 10100 nM)	0.0005	OC1=CC2=NCC3CC23c2ccccc21 (racemic)

SMILES	IC50 (L1210 [1])	Relative IC50 (L1210 [2])
COc1c(O)c2c(c3cc(C(=O)N4CCc5c4c(O)c(OC)c4[nH]c(C(=O)N6C[C@H]7C[C@@]78C6=CC(=O)c6[nH]cc(C)c68)cc54)[nH]c13)CCN2C(N)=O [(+)-CC-1065]	0.01 ng/mL (≈ 0.0142 nM)	100
Cl.NNC(=O)N1CC(CCl)c2c1cc(O)c1ccccc21 (racemic)	1 ng/mL	1
